Experiments:
Test in all cases: radiometric filter-binding kinase assay
MKNK1 (human) = MKNK1 (human) (UniProt Q9BUB5); details: compound 100.0 µM; ATP 50 µM
PKN2 (human) = PKN2 (human) (UniProt Q16513); details: compound 100.0 µM; ATP 5 µM
MARK1 (human) = MARK1 (human) (UniProt Q9P0L2); details: compound 100.0 µM; ATP 20 µM
[1] = tested on: AKT2 (human), P31751 [S474D]; details: compound 100.0 µM; ATP 50 µM
MAP3K5 (human) = MAP3K5 (human) (UniProt Q99683); details: compound 100.0 µM; ATP 50 µM
EPHB2 (human) = EPHB2 (human) (UniProt P29323); details: compound 100.0 µM; ATP 20 µM
FLT1 (human) = FLT1 (human) (UniProt P17948); details: compound 100.0 µM; ATP 20 µM
SYK (human) = SYK (human) (UniProt P43405); details: compound 100.0 µM; ATP 20 µM
CAMKK2 (human) = CAMKK2 (human) (UniProt Q96RR4); details: compound 100.0 µM; ATP 20 µM
MARK4 (human) = MARK4 (human) (UniProt Q96L34); details: compound 100.0 µM; ATP 50 µM
MST4 (human) = MST4 (human) (UniProt Q9P289); details: compound 100.0 µM; ATP 20 µM
LCK (mouse) = details: compound 100.0 µM; ATP 50 µM; accession and sequence are those of the human protein
PIM3 (human) = PIM3 (human) (UniProt Q86V86); details: compound 100.0 µM; ATP 20 µM
CDK2 CCNA2 (human) = CDK2 CCNA2 (human) (UniProt P20248+P24941); details: compound 100.0 µM; ATP 20 µM
PHKG1 (human) = PHKG1 (human) (UniProt Q16816); details: compound 100.0 µM; ATP 50 µM
PIM1 (human) = PIM1 (human) (UniProt P11309); details: compound 100.0 µM; ATP 20 µM
NEK2 (human) = NEK2 (human) (UniProt P51955); details: compound 100.0 µM; ATP 50 µM
ROCK2 (rat) = details: compound 100.0 µM; ATP 20 µM; accession and sequence are those of the human protein
MAPKAPK2 (human) = MAPKAPK2 (human) (UniProt P49137); details: compound 100.0 µM; ATP 20 µM
MKNK2 (human) = MKNK2 (human) (UniProt Q9HBH9); details: compound 100.0 µM; ATP 50 µM
PTK6 (human) = PTK6 (human) (UniProt Q13882); details: compound 100.0 µM; ATP 20 µM
SRPK1 (human) = SRPK1 (human) (UniProt Q96SB4); details: compound 100.0 µM; ATP 50 µM
STK33 (human) = STK33 (human) (UniProt Q9BYT3); details: compound 100.0 µM; ATP 50 µM
DYRK1A (human) = DYRK1A (human) (UniProt Q13627); details: compound 100.0 µM; ATP 50 µM
TTK (human) = TTK (human) (UniProt P33981); details: compound 100.0 µM; ATP 20 µM
DYRK2 (human) = DYRK2 (human) (UniProt Q92630); details: compound 100.0 µM; ATP 50 µM
AURKB (human) = AURKB (human) (UniProt Q96GD4); details: compound 100.0 µM; ATP 20 µM
CaMK1 (human) = CaMK1 (human) (UniProt Q14012); details: compound 100.0 µM; ATP 50 µM
RPS6KA1 KD1 KD2 (human) = RPS6KA1 KD1 KD2 (human) (UniProt Q15418); details: compound 100.0 µM; ATP 50 µM
MARK2 (human) = MARK2 (human) (UniProt Q7KZI7); details: compound 100.0 µM; ATP 20 µM
MAP2K1 (human) = MAP2K1 (human) (UniProt Q02750); details: compound 100.0 µM; ATP 5 µM
STK3 (human) = STK3 (human) (UniProt Q13188); details: compound 100.0 µM; ATP 20 µM
MAP2K2 (human) = MAP2K2 (human) (UniProt P36507); details: compound 100.0 µM; ATP 5 µM
ZAP70 (human) = ZAP70 (human) (UniProt P43403); details: compound 100.0 µM; ATP 5 µM
ABL1 (human) = ABL1 (human) (UniProt P00519); details: compound 100.0 µM; ATP 5 µM
CSK (human) = CSK (human) (UniProt P41240); details: compound 100.0 µM; ATP 20 µM
MARK3 (human) = MARK3 (human) (UniProt P27448); details: compound 100.0 µM; ATP 5 µM
EPHB3 (human) = EPHB3 (human) (UniProt P54753); details: compound 100.0 µM; ATP 20 µM
TEK (human) = TEK (human) (UniProt Q02763); details: compound 100.0 µM; ATP 20 µM

MKNK1 (human), sequence (Q9BUB5 whole entry, looked up): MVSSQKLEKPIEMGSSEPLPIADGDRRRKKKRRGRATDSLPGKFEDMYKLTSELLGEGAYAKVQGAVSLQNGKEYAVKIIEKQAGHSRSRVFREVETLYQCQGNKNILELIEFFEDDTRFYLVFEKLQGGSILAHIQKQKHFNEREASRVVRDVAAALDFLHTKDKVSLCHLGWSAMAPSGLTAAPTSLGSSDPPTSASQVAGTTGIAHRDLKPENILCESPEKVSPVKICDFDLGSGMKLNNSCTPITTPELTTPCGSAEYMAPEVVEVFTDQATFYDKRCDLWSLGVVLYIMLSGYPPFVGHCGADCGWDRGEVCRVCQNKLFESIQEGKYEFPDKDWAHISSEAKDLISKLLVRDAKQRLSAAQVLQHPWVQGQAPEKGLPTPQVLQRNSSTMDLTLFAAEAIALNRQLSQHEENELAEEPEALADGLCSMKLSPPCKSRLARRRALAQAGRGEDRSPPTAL
MAP2K1 (human), sequence (Q02750 whole entry, looked up): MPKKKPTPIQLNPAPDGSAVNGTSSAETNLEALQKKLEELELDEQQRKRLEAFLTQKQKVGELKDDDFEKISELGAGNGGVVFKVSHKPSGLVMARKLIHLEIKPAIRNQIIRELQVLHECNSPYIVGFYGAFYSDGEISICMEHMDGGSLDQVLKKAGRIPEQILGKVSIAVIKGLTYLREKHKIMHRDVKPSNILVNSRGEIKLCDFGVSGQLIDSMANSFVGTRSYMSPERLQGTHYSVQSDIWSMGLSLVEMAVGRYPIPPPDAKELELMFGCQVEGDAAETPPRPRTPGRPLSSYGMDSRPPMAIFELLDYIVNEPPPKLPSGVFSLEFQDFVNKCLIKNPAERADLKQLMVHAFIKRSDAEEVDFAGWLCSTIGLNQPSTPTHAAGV
MARK3 (human), sequence (P27448 whole entry, looked up): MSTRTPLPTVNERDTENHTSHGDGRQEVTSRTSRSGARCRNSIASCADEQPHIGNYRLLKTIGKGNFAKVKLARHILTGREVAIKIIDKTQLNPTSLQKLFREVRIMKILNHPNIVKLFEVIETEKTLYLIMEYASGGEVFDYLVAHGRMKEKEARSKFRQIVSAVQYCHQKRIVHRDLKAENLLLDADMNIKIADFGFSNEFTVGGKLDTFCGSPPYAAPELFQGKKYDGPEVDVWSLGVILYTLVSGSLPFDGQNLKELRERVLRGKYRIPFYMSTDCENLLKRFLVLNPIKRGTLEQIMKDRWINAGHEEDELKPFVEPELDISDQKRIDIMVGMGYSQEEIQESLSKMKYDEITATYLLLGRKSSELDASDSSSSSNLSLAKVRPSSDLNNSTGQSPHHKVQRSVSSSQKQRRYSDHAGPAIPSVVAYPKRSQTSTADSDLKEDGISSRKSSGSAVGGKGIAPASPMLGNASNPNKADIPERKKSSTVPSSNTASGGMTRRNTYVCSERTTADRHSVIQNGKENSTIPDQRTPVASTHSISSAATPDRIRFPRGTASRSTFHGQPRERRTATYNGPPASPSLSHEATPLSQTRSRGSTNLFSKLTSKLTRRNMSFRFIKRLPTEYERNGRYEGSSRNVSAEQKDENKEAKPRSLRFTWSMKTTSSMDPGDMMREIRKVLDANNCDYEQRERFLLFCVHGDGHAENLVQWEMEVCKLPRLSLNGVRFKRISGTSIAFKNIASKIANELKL
AKT2 (human), P31751 [S474D], sequence (P31751 whole entry S474D, looked up): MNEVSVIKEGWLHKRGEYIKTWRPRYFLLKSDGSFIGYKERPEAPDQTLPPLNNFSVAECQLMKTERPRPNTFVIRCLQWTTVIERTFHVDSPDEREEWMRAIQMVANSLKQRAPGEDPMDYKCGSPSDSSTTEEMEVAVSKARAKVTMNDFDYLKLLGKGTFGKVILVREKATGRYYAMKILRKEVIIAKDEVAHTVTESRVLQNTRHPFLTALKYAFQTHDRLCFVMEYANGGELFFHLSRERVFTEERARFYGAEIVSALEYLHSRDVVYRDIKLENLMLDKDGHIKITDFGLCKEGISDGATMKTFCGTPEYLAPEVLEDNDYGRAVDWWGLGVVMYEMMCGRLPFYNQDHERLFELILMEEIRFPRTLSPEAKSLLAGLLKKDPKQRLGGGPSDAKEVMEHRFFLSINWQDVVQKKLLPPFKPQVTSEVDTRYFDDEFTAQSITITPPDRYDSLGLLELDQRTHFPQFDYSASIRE
CaMK1 (human), sequence (Q14012 whole entry, looked up): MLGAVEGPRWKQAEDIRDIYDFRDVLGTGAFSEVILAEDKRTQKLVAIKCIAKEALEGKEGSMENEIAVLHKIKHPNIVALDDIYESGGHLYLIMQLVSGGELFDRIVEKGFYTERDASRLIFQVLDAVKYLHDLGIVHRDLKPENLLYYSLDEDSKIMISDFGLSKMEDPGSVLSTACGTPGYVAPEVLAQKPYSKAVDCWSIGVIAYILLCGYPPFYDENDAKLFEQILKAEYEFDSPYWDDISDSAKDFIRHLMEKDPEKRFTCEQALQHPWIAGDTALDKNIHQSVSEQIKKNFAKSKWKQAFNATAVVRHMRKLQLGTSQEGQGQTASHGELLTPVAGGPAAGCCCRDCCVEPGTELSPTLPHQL
CSK (human), sequence (P41240 whole entry, looked up): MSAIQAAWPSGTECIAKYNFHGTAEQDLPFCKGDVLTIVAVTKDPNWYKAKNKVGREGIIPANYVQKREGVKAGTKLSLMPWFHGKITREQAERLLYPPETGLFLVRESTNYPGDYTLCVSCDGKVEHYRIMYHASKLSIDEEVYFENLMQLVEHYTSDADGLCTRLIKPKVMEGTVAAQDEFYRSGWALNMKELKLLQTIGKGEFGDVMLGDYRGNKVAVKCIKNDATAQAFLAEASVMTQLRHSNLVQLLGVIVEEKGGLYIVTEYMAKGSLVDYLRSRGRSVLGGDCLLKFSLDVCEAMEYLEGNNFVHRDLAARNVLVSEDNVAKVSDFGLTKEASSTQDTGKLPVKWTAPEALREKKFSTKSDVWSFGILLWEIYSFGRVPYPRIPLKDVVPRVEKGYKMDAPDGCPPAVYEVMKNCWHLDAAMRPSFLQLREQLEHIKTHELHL
ABL1 (human), sequence (P00519 whole entry, looked up): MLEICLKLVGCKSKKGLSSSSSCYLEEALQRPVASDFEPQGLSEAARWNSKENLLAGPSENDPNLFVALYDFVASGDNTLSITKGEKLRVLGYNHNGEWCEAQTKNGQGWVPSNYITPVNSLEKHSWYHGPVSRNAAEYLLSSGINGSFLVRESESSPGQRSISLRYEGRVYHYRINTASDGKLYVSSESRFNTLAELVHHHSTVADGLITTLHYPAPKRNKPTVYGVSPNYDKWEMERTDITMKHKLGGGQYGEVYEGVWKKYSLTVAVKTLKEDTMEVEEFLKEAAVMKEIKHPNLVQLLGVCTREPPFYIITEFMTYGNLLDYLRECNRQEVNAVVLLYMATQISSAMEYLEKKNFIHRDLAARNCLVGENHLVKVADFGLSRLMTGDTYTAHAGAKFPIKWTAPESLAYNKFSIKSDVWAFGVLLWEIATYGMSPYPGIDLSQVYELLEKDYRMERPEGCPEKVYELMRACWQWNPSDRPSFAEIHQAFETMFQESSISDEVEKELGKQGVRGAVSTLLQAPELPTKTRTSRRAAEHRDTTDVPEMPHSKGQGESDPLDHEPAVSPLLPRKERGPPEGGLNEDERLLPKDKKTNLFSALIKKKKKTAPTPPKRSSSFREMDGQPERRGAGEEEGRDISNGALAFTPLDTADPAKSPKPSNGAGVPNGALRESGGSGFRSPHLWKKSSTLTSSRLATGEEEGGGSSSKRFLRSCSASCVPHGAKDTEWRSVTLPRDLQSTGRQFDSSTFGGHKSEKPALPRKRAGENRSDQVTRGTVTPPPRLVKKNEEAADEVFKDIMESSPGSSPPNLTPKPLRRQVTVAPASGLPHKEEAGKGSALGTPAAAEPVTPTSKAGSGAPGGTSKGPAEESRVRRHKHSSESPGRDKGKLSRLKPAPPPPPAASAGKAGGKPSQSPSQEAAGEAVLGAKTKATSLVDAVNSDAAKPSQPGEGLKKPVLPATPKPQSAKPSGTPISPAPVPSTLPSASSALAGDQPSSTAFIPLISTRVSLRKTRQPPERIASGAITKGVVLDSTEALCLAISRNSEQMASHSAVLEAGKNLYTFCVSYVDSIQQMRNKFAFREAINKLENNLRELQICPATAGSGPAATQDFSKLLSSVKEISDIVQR
SRPK1 (human), sequence (Q96SB4 whole entry, looked up): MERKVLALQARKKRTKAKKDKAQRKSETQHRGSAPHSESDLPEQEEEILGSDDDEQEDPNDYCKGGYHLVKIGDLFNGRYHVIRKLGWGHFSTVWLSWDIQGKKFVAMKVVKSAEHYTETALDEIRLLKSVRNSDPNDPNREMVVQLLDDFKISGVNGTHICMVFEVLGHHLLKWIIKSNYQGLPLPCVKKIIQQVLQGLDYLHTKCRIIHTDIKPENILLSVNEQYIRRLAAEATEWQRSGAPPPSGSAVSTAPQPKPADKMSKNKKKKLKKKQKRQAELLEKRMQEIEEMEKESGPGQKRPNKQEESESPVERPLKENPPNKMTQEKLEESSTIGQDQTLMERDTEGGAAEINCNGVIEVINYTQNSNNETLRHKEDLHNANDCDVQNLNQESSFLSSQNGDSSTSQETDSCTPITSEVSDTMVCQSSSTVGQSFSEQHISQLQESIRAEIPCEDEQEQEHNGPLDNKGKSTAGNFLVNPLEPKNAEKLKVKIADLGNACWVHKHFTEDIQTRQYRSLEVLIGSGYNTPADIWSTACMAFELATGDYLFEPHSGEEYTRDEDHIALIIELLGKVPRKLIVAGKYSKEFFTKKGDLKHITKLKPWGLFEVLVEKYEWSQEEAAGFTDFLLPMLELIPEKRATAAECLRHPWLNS

| Compound | inhibition (MKNK1 (human)) [%] | inhibition (PKN2 (human)) [%] | inhibition (MARK1 (human)) [%] | inhibition [1] [%] | inhibition (MAP3K5 (human)) [%] | inhibition (EPHB2 (human)) [%] | inhibition (FLT1 (human)) [%] | inhibition (SYK (human)) [%] | inhibition (CAMKK2 (human)) [%] | inhibition (MARK4 (human)) [%] | inhibition (MST4 (human)) [%] | inhibition (LCK (mouse)) [%] | inhibition (PIM3 (human)) [%] | inhibition (CDK2 CCNA2 (human)) [%] | inhibition (PHKG1 (human)) [%] | inhibition (PIM1 (human)) [%] | inhibition (NEK2 (human)) [%] | inhibition (ROCK2 (rat)) [%] | inhibition (MAPKAPK2 (human)) [%] | inhibition (MKNK2 (human)) [%] | other results |
| --- | --- | --- | --- | --- | --- | --- | --- | --- | --- | --- | --- | --- | --- | --- | --- | --- | --- | --- | --- | --- | --- |
| COc1ccc(NC(=S)Nc2cnc3[nH]cnn3c2=O)cn1 | 3 | 1 | 32 | 41 | 16 | 22 | 38 | 9 | 0 | 26 | 0 | 0 | 0 | 0 | 30 | 0 | 0 | 7 | 26 | 0 | inhibition (PTK6 (human)): 9%; inhibition (SRPK1 (human)): 42%; inhibition (STK33 (human)): 15%; inhibition (DYRK1A (human)): 10%; inhibition (TTK (human)): 0%; inhibition (DYRK2 (human)): 27%; inhibition (AURKB (human)): 0%; inhibition (CaMK1 (human)): 0%; inhibition (RPS6KA1 KD1 KD2 (human)): 19%; inhibition (MARK2 (human)): 0%; inhibition (MAP2K1 (human)): 11%; inhibition (STK3 (human)): 0%; inhibition (MAP2K2 (human)): 0%; inhibition (ZAP70 (human)): 23%; inhibition (ABL1 (human)): 5%; inhibition (CSK (human)): 20%; inhibition (MARK3 (human)): 17%; inhibition (EPHB3 (human)): 8%; inhibition (TEK (human)): 0% |
| O=c1c(NC(=S)NCc2ccccc2)cnc2[nH]ccn12 | 0 | 0 | 13 | 31 | 0 | 3 | 28 | 12 | 0 | 21 | 0 | 0 | 0 | 0 | 24 | 0 | 4 | 13 | 23 | 13 | inhibition (PTK6 (human)): 31%; inhibition (SRPK1 (human)): 9%; inhibition (STK33 (human)): 13%; inhibition (DYRK1A (human)): 5%; inhibition (TTK (human)): 0%; inhibition (DYRK2 (human)): 13%; inhibition (AURKB (human)): 0%; inhibition (CaMK1 (human)): 6%; inhibition (RPS6KA1 KD1 KD2 (human)): 17%; inhibition (MARK2 (human)): 0%; inhibition (MAP2K1 (human)): 57%; inhibition (STK3 (human)): 3%; inhibition (MAP2K2 (human)): 0%; inhibition (ZAP70 (human)): 0%; inhibition (ABL1 (human)): 0%; inhibition (CSK (human)): 26%; inhibition (MARK3 (human)): 9%; inhibition (EPHB3 (human)): 0%; inhibition (TEK (human)): 0% |
| CC(C)(C)Nc1c(C2CC2)nc2[nH]cnn12 | 0 | 17 | 0 | 31 | 4 | 0 | 12 | 7 | 34 | 15 | 0 | 0 | 0 | 33 | 6 | 11 | 0 | 2 | 0 | 9 | inhibition (PTK6 (human)): 25%; inhibition (SRPK1 (human)): 0%; inhibition (STK33 (human)): 0%; inhibition (DYRK1A (human)): 0%; inhibition (TTK (human)): 10%; inhibition (DYRK2 (human)): 4%; inhibition (AURKB (human)): 34%; inhibition (CaMK1 (human)): 22%; inhibition (RPS6KA1 KD1 KD2 (human)): 3%; inhibition (MARK2 (human)): 0%; inhibition (MAP2K1 (human)): 0%; inhibition (STK3 (human)): 0%; inhibition (MAP2K2 (human)): 0%; inhibition (ZAP70 (human)): 1%; inhibition (ABL1 (human)): 0%; inhibition (CSK (human)): 0%; inhibition (MARK3 (human)): 0%; inhibition (EPHB3 (human)): 68%; inhibition (TEK (human)): 9% |
